Source: ChEMBL document CHEMBL5143536, “Dihydroartemisinin improves hypercholesterolemia in ovariectomized mice via enhancing vectorial transport of cholesterol and bile acids from blood to bile” (Bioorg Med Chem, 2022)
The source made the active and inactive calls.

Experiments:
Format in all cases: functional, organism-based
Mus musculus [1] = assay: Hypocholesterolemic activity in OVX-induced C57BL/6 mouse model assessed as increase in Slc10a1 mRNA expression in liver in liver at 150 mg/kg, ig for 4 weeks by qRT-PCR analysis
Mus musculus [2] = assay: Hypocholesterolemic activity in OVX-induced C57BL/6 mouse model assessed as increase in CD36 mRNA expression in liver at 150 mg/kg, ig for 4 weeks by qRT-PCR analysis
Mus musculus [3] = assay: Hypocholesterolemic activity in OVX-induced C57BL/6 mouse model assessed as decrease in Fabp6 mRNA expression in Ileum […] at 150 mg/kg, ig for 4 weeks by qRT-PCR analysis
Mus musculus [4] = assay: Hypocholesterolemic activity in OVX-induced C57BL/6 mouse model assessed as increase in Fasn mRNA expression in liver at 150 mg/kg, ig for 4 weeks by qRT-PCR analysis
Mus musculus [5] = assay: Hypocholesterolemic activity in OVX-induced C57BL/6 mouse model assessed as increase in Scd1 mRNA expression in liver at 150 mg/kg, ig for 4 weeks by qRT-PCR analysis
Mus musculus [6] = assay: Hypocholesterolemic activity in OVX-induced C57BL/6 mouse model assessed as decrease in LDL-C concentration in serum at 150 mg/kg, ig for 4 weeks
Mus musculus [7] = assay: Hypocholesterolemic activity in OVX-induced C57BL/6 mouse model assessed as increase in Fasn protein expression in liver at 150 mg/kg, ig for 4 weeks by western blot analysis
Mus musculus [8] = assay: Hypocholesterolemic activity in OVX-induced C57BL/6 mouse model assessed as increase in ACACa protein expression in liver at 150 mg/kg, ig for 4 weeks by western blot analysis
Mus musculus [9] = assay: Hypocholesterolemic activity in OVX-induced C57BL/6 mouse model assessed as increase in Abcg5 protein expression in liver in liver at 150 mg/kg, ig for 4 weeks by western blot analysis
Mus musculus [10] = assay: Hypocholesterolemic activity in OVX-induced C57BL/6 mouse model assessed as increase in Slcob2 mRNA expression in liver in liver at 150 mg/kg, ig for 4 weeks by qRT-PCR analysis
Mus musculus [11] = assay: Hypocholesterolemic activity in OVX-induced C57BL/6 mouse model assessed as decrease in TC concentration in serum at 150 mg/kg, ig for 4 weeks
Mus musculus [12] = assay: Hypocholesterolemic activity in OVX-induced C57BL/6 mouse model assessed as increase in HDL-C concentration in serum at 150 mg/kg, ig for 4 weeks
Mus musculus [13] = assay: Hypocholesterolemic activity in OVX-induced C57BL/6 mouse model assessed as increase in SCD1 protein expression in liver at 150 mg/kg, ig for 4 weeks by western blot analysis
Mus musculus [14] = assay: Hypocholesterolemic activity in OVX-induced C57BL/6 mouse model assessed as increase in Elovl5 mRNA expression in liver at 150 mg/kg, ig for 4 weeks by qRT-PCR analysis
Mus musculus [15] = assay: Hypocholesterolemic activity in OVX-induced C57BL/6 mouse model assessed as increase in Abcb4 mRNA expression in liver in liver at 150 mg/kg, ig for 4 weeks by qRT-PCR analysis
Mus musculus [16] = assay: Hypocholesterolemic activity in OVX-induced C57BL/6 mouse model assessed as increase in Elovl6 mRNA expression in liver at 150 mg/kg, ig for 4 weeks by qRT-PCR analysis
Mus musculus [17] = assay: Hypocholesterolemic activity in OVX-induced C57BL/6 mouse model assessed as increase in CD36 protein expression in liver at 150 mg/kg, ig for 4 weeks by western blot analysis
Mus musculus [18] = assay: Hypocholesterolemic activity in OVX-induced C57BL/6 mouse model assessed as increase in Abcg5 mRNA expression in liver in liver at 150 mg/kg, ig for 4 weeks by qRT-PCR analysis
Mus musculus [19] = assay: Hypocholesterolemic activity in OVX-induced C57BL/6 mouse model assessed as increase in Abcg8 protein expression in liver in liver at 150 mg/kg, ig for 4 weeks by western blot analysis
Mus musculus [20] = assay: Hypocholesterolemic activity in OVX-induced C57BL/6 mouse model assessed as decrease in size of lipid droplet concentration in […] at 150 mg/kg, ig for 4 weeks by H and E staining based assay; details: Liver
Mus musculus [21] = assay: Hypocholesterolemic activity in OVX-induced C57BL/6 mouse model assessed as increase in Abcg8 mRNA expression in liver in liver at 150 mg/kg, ig for 4 weeks by qRT-PCR analysis
Mus musculus [22] = assay: Hypocholesterolemic activity in OVX-induced C57BL/6 mouse model assessed as decrease in Slc10a2 mRNA expression in Ileum at 150 mg/kg, ig for 4 weeks by qRT-PCR analysis
Mus musculus [23] = assay: Hypocholesterolemic activity in OVX-induced C57BL/6 mouse model assessed as increase in Abcb1a mRNA expression in liver in liver at 150 mg/kg, ig for 4 weeks by qRT-PCR analysis
Mus musculus [24] = assay: Hypocholesterolemic activity in OVX-induced C57BL/6 mouse model assessed as increase in Cyp7b1 mRNA expression in liver in liver at 150 mg/kg, ig for 4 weeks by qRT-PCR analysis
Mus musculus [25] = assay: Hypocholesterolemic activity in OVX-induced C57BL/6 mouse model assessed as decrease in number of lipid droplet concentration in liver at 150 mg/kg, ig for 4 weeks by H and E staining based assay

Measured: Activity

C[C@H]1[C@@H](O)O[C@@H]2O[C@@]3(C)CC[C@H]4[C@H](C)CC[C@@H]1[C@@]24OO3
active: Mus musculus [1] | Mus musculus [2] | Mus musculus [3] | Mus musculus [4] | Mus musculus [5] | Mus musculus [6] | Mus musculus [7] | Mus musculus [8] | Mus musculus [9] | Mus musculus [10] | Mus musculus [11] | Mus musculus [12] | Mus musculus [13] | Mus musculus [14] | Mus musculus [15] | Mus musculus [16] | Mus musculus [17] | Mus musculus [18] | Mus musculus [19] | Mus musculus [20] | Mus musculus [21] | Mus musculus [22] | Mus musculus [23] | Mus musculus [24] | Mus musculus [25]
